Reference: US11548913B2, “Therapeutic compositions including peptides and uses thereof” (Stealth BioTherapeutics Inc., priority 2015, dated 2023)
Entries after “also recorded” stand apart in the source; their conditions may differ. Square brackets hold non-standard residues; d marks the D form. Peptide text beside a SMILES is read from it. Dmt = Cc1cc(O)cc(C)c1C[C@H](N)C(=O)O

Experiments:
[1] = test system: Excised Sprague-Dawley rat hearts; experiment: Modified Langendorff rat heart model, ischemia/reperfusion with peptide in the reperfusion buffer (Example 1); conditions: 1 μM peptide in Krebs buffer during 2 hours reperfusion after 20 min global no-flow ischemia; compared to controls
Protocol: (§1) The Langendorff rodent heart model is widely employed in studies of myocardial function and responses to injury (e.g., ischemia). For whole-heart studies, male Sprague-Dawley rats (7-9 weeks old) were injected with pentobarbital (35 mg/kg, ip injection) and hearts were excised with midline thoracotomy. The aortas were secured around a cannula of a modified Langendorff apparatus and retrogradely perfused (perfusion pressure of 75 mm Hg) with a modified Krebs-Henseleit buffer containing (in mM): 118 NaCl, 24 NaHCO3, 4.75 KCl, 1.2 KH2PO4, 1.2 MgSO4, 2.0 CaCl2, and 10 glucose (gassed with 95/5% O2/CO2). Hearts were bathed in a buffer-filled perfusion chamber maintained at 37° C. for the duration of the experiments. Following the initiation of perfusion, hearts were instrumented for the simultaneous observation of mechanical and electrical function. A buffer-filled latex balloon (size 5, Harvard Apparatus, Holliston, Mass., USA), calibrated at the beginning of each day using a digital manometer, was inserted into the left ventricle (via the mitral valve) for the measurement of left ventricular developed pressure (LVDP), with balloon volume adjusted to establish a diastolic pressure of 5-8 mm Hg. Three electrodes were placed into the buffer filled perfusion chamber for the measurement of the volume-conducted electrocardiogram (ECG). Coronary flow rates were monitored constantly with a flow probe (Transconic Systems, Ithaca, N.Y., USA) connected in series with the perfusion line, and normalized to heart wet weight (in grams) at the end of each experiment. All physiological parameters were continuously monitored and stored on a personal computer using commercially available software (Chart, AD Instruments, Colorado Springs, Colo., USA). Heart rate was calculated using the LVDP trace, and maximal rates of contraction(+dP/dt) and relaxation (−dP/dt) were calculated using the derivative of the LVDP trace.
Following a 10 minute baseline period, ischemia/reperfusion was initiated. Hearts were exposed to global no-flow ischemia by stopping perfusion for 20 min. At the end of the index ischemia, static buffer from the perfusion lines was washed out (via an accessory port proximal to the aortic cannula), and reperfusion ensued for 2 hours either with Krebs buffer alone (control) or Krebs buffer containing an experimental peptide at a concentration of 1 μM. Peptides tested included D-Arg-D-Dmt-D-Lys-L-Phe-NH2 (SBT-46), D-Arg-L-DMT-L-Ala-L-Phe-NH2 (SBT-68), (Ac)-D-Arg-L-DMT-L-Lys-L-Phe-NH2 (SBT-85), D-Arg-L-Dmt-L-His-L-Phe-NH2(SBT-100), D-Arg-L-DMT-L-Orn-L-Phe-NH2 (SBT-102), D-Orn-L-DMT-L-Lys-L-Phe-NH2(SBT-131), D-(Amidine)Arg(propylamine)-L-DMT-L-Lys-L-Phe-NH2 (SBT-140), and D-Arg(butylamidine analog)-L-DMT-L-Lys-L-Phe-NH2(SBT-149). At the end of reperfusion, the left ventricle was dissected, sliced into 5 mm-thick slices, incubated in 1% triphenyltetrazolium chloride (TTC) for 10 min (37° C.) and digitally photographed for subsequent infarct size analysis. Infarct size was expressed as a percentage of the left ventricle (% area at risk (AAR))(calculated using ImageJ software, NIH, Bethesda, Md., USA).

[2] = test system: excised rat hearts; experiment: Modified Langendorff rat heart model, peptide pre-treatment before ischemia/reperfusion (Example 2); conditions: hearts bathed 2 hours in 1 μM peptide before 20 min ischemia and 2 hours reperfusion; vs SBT-46, SBT-102 and controls; anticipated
Protocol: as §1, with “are” for “were”, “USA), which is” for “USA),”, “is” for “was”
Prior to the initiation of ischemia/reperfusion, the excised rat hearts are bathed in buffer containing an experimental peptide at a concentration of 1 μM or buffer alone (control) for two hours. The experimental peptide is selected from D-Arg-D-Dmt-D-Lys-L-Phe-NH2 (SBT-46), D-Arg-L-DMT-L-Ala-L-Phe-NH2 (SBT-68), (Ac)-D-Arg-L-DMT-L-Lys-L-Phe-NH2 (SBT-85), D-Arg-L-Dmt-L-His-L-Phe-NH2(SBT-100), D-Arg-L-DMT-L-Orn-L-Phe-NH2 (SBT-102), D-Orn-L-DMT-L-Lys-L-Phe-NH2(SBT-131), D-(Amidine)Arg(propylamine)-L-DMT-L-Lys-L-Phe-NH2(SBT-140), and D-Arg(butylamidine analog)-L-DMT-L-Lys-L-Phe-NH2 (SBT-149). Following a 10 minute baseline period, ischemia/reperfusion is initiated. Hearts are exposed to global no-flow ischemia by stopping perfusion for 20 min. At the end of the index ischemia, static buffer from the perfusion lines is washed out (via an accessory port proximal to the aortic cannula), and reperfusion ensues for 2 hours with Krebs buffer. At the end of reperfusion, the left ventricle is dissected, sliced into 5 mm-thick slices, incubated in 1% triphenyltetrazolium chloride (TTC) for 10 min (37° C.) and digitally photographed for subsequent infarct size analysis. Infarct size is expressed as a percentage of the left ventricle (% area at risk (AAR))(calculated using ImageJ software, NIH, Bethesda, Md., USA).

| Compound | attenuation of cardiac ischemia injury and ischemia-reperfusion injury [1] | infarct size expressed as a percentage of area at risk (AAR) [1] | left ventricular developed pressure (LVDP) [1] | maximal rates of contraction (+dP/dt) [1] | maximal rates of relaxation (−dP/dt) [1] | LVDP [2] | infarct size [2] | maximal rates of contraction (+dP/dt) [2] | maximal rates of relaxation (−dP/dt) [2] |
| --- | --- | --- | --- | --- | --- | --- | --- | --- | --- |
| Cc1cc(O)cc(C)c1C[C@H](NC(=O)[C@H](N)CCCCC(=N)N)C(=O)N[C@@H](CCCCN)C(=O)N[C@@H](Cc1ccccc1)C(N)=O [SBT-149, D-Arg(butylamidine analog)-L-DMT-L-Lys-L-Phe-NH2] | able to attenuate cardiac ischemia injury and ischemia-reperfusion injury; also recorded: attenuation of cardiac ischemia-reperfusion injury | reduced infarct size | increased LVDP | increased maximal rates of contraction | increased maximal rates of relaxation | increased LVDP | reduced infarct size | increased maximal rates of contraction | increased maximal rates of relaxation |
| CC(=O)N[C@H](CCCNC(=N)N)C(=O)N[C@@H](Cc1c(C)cc(O)cc1C)C(=O)N[C@@H](CCCCN)C(=O)N[C@@H](Cc1ccccc1)C(N)=O [SBT-85, (Ac)-D-Arg-L-DMT-L-Lys-L-Phe-NH2] (Ac-[dR][Dmt]KF-NH2) | able to attenuate cardiac ischemia injury and ischemia-reperfusion injury; also recorded: attenuation of cardiac ischemia-reperfusion injury | reduced infarct size | increased LVDP | increased maximal rates of contraction | increased maximal rates of relaxation | increased LVDP | reduced infarct size | increased maximal rates of contraction | increased maximal rates of relaxation |
| Cc1cc(O)cc(C)c1C[C@H](NC(=O)[C@H](N)CCCNC(=N)N)C(=O)N[C@@H](Cc1cnc[nH]1)C(=O)N[C@@H](Cc1ccccc1)C(N)=O [SBT-100, D-Arg-L-Dmt-L-His-L-Phe-NH2] (H-[dR][Dmt]HF-NH2) | able to attenuate cardiac ischemia injury and ischemia-reperfusion injury; also recorded: attenuation of cardiac ischemia-reperfusion injury | reduced infarct size | increased LVDP | increased maximal rates of contraction | increased maximal rates of relaxation | increased LVDP | reduced infarct size | increased maximal rates of contraction | increased maximal rates of relaxation |
| D-Arg-L-Dmt-L-Orn-L-Phe-NH2 [SBT-102] | does not attenuate cardiac ischemia-reperfusion injury | did not reduce infarct size | did not reduce infarct size, increase LVDP | did not reduce infarct size, increase LVDP, or increase the maximal rates of contraction and relaxation | did not reduce infarct size, increase LVDP, or increase the maximal rates of contraction and relaxation | – | – | – | – |
| Cc1cc(O)cc(C)c1C[C@H](NC(=O)[C@H](N)CCCNC(=N)N)C(=O)N[C@@H](C)C(=O)N[C@@H](Cc1ccccc1)C(N)=O [SBT-68, D-Arg-L-DMT-L-Ala-L-Phe-NH2] (H-[dR][Dmt]AF-NH2) | able to attenuate cardiac ischemia injury and ischemia-reperfusion injury; also recorded: attenuation of cardiac ischemia-reperfusion injury | reduced infarct size | increased LVDP | increased maximal rates of contraction | increased maximal rates of relaxation | increased LVDP | reduced infarct size | increased maximal rates of contraction | increased maximal rates of relaxation |
| Cc1cc(O)cc(C)c1C[C@H](NC(=O)[C@@H](CCCN)NC(=N)N)C(=O)N[C@@H](CCCCN)C(=O)N[C@@H](Cc1ccccc1)C(N)=O [SBT-140, D-(Amidine)Arg(propylamine)-L-DMT-L-Lys-L-Phe-NH2] | able to attenuate cardiac ischemia injury and ischemia-reperfusion injury; also recorded: attenuation of cardiac ischemia-reperfusion injury | reduced infarct size | increased LVDP | increased maximal rates of contraction | increased maximal rates of relaxation | increased LVDP | reduced infarct size | increased maximal rates of contraction | increased maximal rates of relaxation |
| D-Arg-D-Dmt-D-Lys-L-Phe-NH2 [SBT-46] | does not attenuate cardiac ischemia-reperfusion injury | did not reduce infarct size | did not reduce infarct size, increase LVDP | did not reduce infarct size, increase LVDP, or increase the maximal rates of contraction and relaxation | did not reduce infarct size, increase LVDP, or increase the maximal rates of contraction and relaxation | – | – | – | – |
